This is an account of results in PubChem BioAssay (NCI).

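Interpolation was linear, between the two tested concentrations surrounding the appropriate level; five concentrations were tested over 48 hours in 96-well plates. TGI marks complete inhibition of growth.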

One assay deals with XF 498 CNS. As to the kind of experiment: inhibition of tumour cell growth, NCI panel, 48 h.
The test system of another assay is DMS 273 small cell lung. As to the kind of experiment: inhibition of tumour cell growth, NCI panel, 48 h.

As for `O=C1CCN(CCC(F)(F)C(F)(F)C(F)(F)C(F)(F)F)C(=S)N1`, the TGI in the assay with XF 498 CNS and in the assay on DMS 273 small cell lung was > 100 µM throughout.
In the case of `CCOC(=O)C(CC(C)C)NC(=O)C(N)Cc1ccc(N(CCCl)CCCl)cc1` (stereo not given), the TGI was 3.87 µM in the assay with XF 498 CNS and 13.2 µM in the assay on DMS 273 small cell lung.
As to `Cc1cc2c(=O)c3ccc(Cl)cc3[nH]c2c(C(=O)O)c1C`, in the assay on XF 498 CNS, the TGI is > 100 µM.
`COc1ccc(-c2cc(=O)c3cc4c(cc3[nH]2)OCO4)c(OC)c1`: the TGI in the assay on XF 498 CNS is 97.9 µM; in the assay on DMS 273 small cell lung, > 100 µM.
The matching figures for `Nc1ccc(N=Nc2ccc(-c3ccc(N=Nc4c(S(=O)(=O)O)cc5cc(S(=O)(=O)O)c(N=Nc6ccc([N+](=O)[O-])cc6)c(N)c5c4O)cc3)cc2)c2cc(S(=O)(=O)O)ccc12`: > 100 µM and > 100 µM.
Turning to `CC1=N/C(=C\c2ccc(N)cc2)C(=O)N1Nc1nnc(NN2C(=O)/C(=C/c3ccc(N)cc3)N=C2C)c2ccccc12`, the TGI with DMS 273 small cell lung was > 100 µM.
